According to ChEMBL document CHEMBL1135057, “A combinatorial library of indinavir analogues and its in vitro and in vivo studies” (Bioorg Med Chem Lett, 2002):

What was measured:
[1] = target: T1, Human immunodeficiency virus type 1 protease (Human immunodeficiency virus 1, UniProt Q72874); test: Tested in vitro for the ability to inhibit cleavage of a substrate by the wild type HIV-1 protease
[2] = test system: Human immunodeficiency virus 1; test: Inhibition of the spread of viral infection in MT-4 human T-lymphoid cells infected by IIIb isolate; assay type: functional; settings: Human immunodeficiency virus 1, T-lymphoid; read-out: CIC95
[3] = target: T1, Human immunodeficiency virus type 1 protease; test: Tested in vitro for potential potency against PI-resistant HIV virus by A-44 mutant enzyme variant

`CN(C)c1ccc2cc(S(=O)(=O)N3CCN(C[C@@H](O)C[C@@H](Cc4ccccc4)C(=O)N[C@H]4c5ccccc5C[C@H]4O)[C@H](C(=O)NC(C)(C)C)C3)ccc2n1` was tested, and the IC50 [1] was < 0.1 nM, the IC95 [2] was 12.5 nM and the IC50 [3] was < 0.6 nM.

In the case of `CC(C)(C)NC(=O)[C@@H]1CN(Cc2ncc(-c3ccccc3)s2)CCN1C[C@@H](O)C[C@@H](Cc1ccccc1)C(=O)N[C@H]1c2ccccc2C[C@H]1O`, the IC50 [1] is reported as < 0.1 nM, the IC95 [2] is reported as 25 nM and the IC50 [3] is reported as < 0.6 nM.
